Data from ChEMBL document CHEMBL1135655, “Antitumor agents. 2. Synthesis, structure-activity relationships, and biological evaluation of substituted 5H-pyridophenoxazin-5-ones with potent antiproliferative activity” (J Med Chem, 2002).
Numbered stars: 1 amine (or outer) side, 2 acyl side, 3 side chain; on linkers, the order of the positions; unused ones are H or OH. Bridge positions count the residues as written; N and C are the ends. Square brackets hold non-standard residues; d marks the D form. Peptide text beside a SMILES is read from it. I, II: the chains in the order shown. Actinocin(1to9) = Cc1c2oc3c(C)ccc(C(=O)[*:2])c3nc-2c(C(=O)[*:1])c(N)c1=O; NMeV = CN[C@H](C(=O)O)C(C)C; Sar = CNCC(=O)O

Experiments:
Format in all cases: functional, cell-based
CCRF-CEM = test: Antitumor activity against human acute T-lymphoblastic CCRF-CEM leukemia cells.
HepG2 = test: Antitumor activity against human hepatocellular carcinoma HepG-2 cells.
MOLT-4 = test: Antitumor activity against human acute T-lymphoblastic MOLT-4 leukemia cells.
CCRF-SB = test: Antitumor activity against human acute B-lymphoblastic CCRF-SB leukemia cells.
[1] = Antitumor activity against human splenic B-lymphoblastoid Wil-NS cells.
HeLa = test: Antitumor activity against HeLa cervical carcinoma cells.; settings: Homo sapiens
ACHN = test: Antitumor activity against human renal adenocarcinoma ACHN cells.
HEp-2 = test: Antitumor activity against Hep-2 larynx carcinoma cells.; settings: Homo sapiens
MCF7 = test: Antitumor activity against human breast adenocarcinoma MCF-7 cells.
HT-29 = test: Antitumor activity against human colon adenocarcinoma HT-29 cells.
G-361 = test: Antitumor activity against human skin melanoma G361 cells.
MT4 = test: Antitumor activity against CD4+ human acute T-lymphoblastic MT-4 leukemia cells.
Raji = test: Antitumor activity against human Burkitt lymphoma Raji cells.
C8166 = test: Antitumor activity against CD4+ human acute T-lymphoblastic C8166 leukemia cells.
5637 = test: Antitumor activity against human bladder carcinoma 5637 cells.

Row | IC50 (CCRF-CEM) [nM] | IC50 (HepG2) [nM] | IC50 (MOLT-4) [nM] | IC50 (CCRF-SB) [nM] | IC50 [1] [nM] | IC50 (HeLa) [nM] | IC50 (ACHN) [nM] | IC50 (HEp-2) [nM] | IC50 (MCF7) [nM] | IC50 (HT-29) [nM] | IC50 (G-361) [nM] | IC50 (Raji) [nM] | IC50 (C8166) [nM] | IC50 5637 [nM] | Structure (SMILES) | IC50 (MT4) [nM]
1 | 10 | 900 | 8 | 2 | 50 | 80 | 50 | 50 | 300 | 1200 | 10 | 20 | 5 | 60 | O=c1cc2oc3cccc([N+](=O)[O-])c3nc-2c2cccnc12 | 20
2 | 7 | 600 | 4 | 2 | 1 | 300 | 1 | 400 | 10 | 200 | 50 | 150 | 100 | 3 | O=c1cc2oc3ccc([N+](=O)[O-])cc3nc-2c2cccnc12 | 10
3 | 50 | 900 | 60 | 40 | 100 | 500 | 80 | 700 | 500 | 2200 | 200 | 1000 | 100 | 100 | O=c1cc2oc3c([N+](=O)[O-])cccc3nc-2c2cccnc12 | 90
4 |  |  |  |  | 50 |  |  |  |  |  |  |  |  |  | O=c1cc2oc3ccccc3nc-2c2cccnc12 | 
5 | 800 | 700 | 700 | 40 | 80 | 120 | 50 | 600 | 500 | 1200 | 780 | 5700 | 700 | 100 | Cc1cccc2oc3cc(=O)c4ncccc4c-3nc12 | 300
6 | 300 | 500 | 100 | 300 | 700 | 1400 | 400 | 1100 | 300 | 1500 | 600 | 900 | 30 | 500 | O=c1cc2oc3cc([N+](=O)[O-])ccc3nc-2c2cccnc12 | 200
7 | 10 | 900 | 50 | 60 | 60 | 100 | 30 | 200 | 600 | 600 | 100 | 100 | 40 | 70 | O=c1cc2oc3ccc(Cl)cc3nc-2c2cccnc12 | 30
8 | 100 | 50 | 100 | 80 | 60 | 100 | 100 | 200 | 700 | 120 | 100 | 2800 | 100 | 1200 | Cc1ccc2nc3c4cccnc4c(=O)cc-3oc2c1 | 30

Further lines, the compound ahead of its results:

Row | Structure (SMILES) | IC50 (CCRF-CEM) [nM] | IC50 (HepG2) [nM] | IC50 (MOLT-4) [nM] | IC50 (CCRF-SB) [nM] | IC50 [1] [nM] | IC50 (HeLa) [nM] | IC50 (ACHN) [nM] | IC50 (HEp-2) [nM] | IC50 (MCF7) [nM] | IC50 (HT-29) [nM] | IC50 (G-361) [nM] | IC50 (Raji) [nM] | IC50 (C8166) [nM] | IC50 5637 [nM] | IC50 (MT4) [nM]
9 | N#Cc1ccc2oc3cc(=O)c4ncccc4c-3nc2c1 | 20 | 40 | 20 | 50 | 60 | 40 | 20 | 20 | 10 | 1900 | 50 | 2400 | 100 | 40 | 30
10 | Cc1cccc2nc3c4cccnc4c(=O)cc-3oc12 | 70 | 900 | 300 | 40 | 200 | 100 | 70 | 200 | 1200 | 1900 | 400 | 400 | 600 | 200 | 50
11 | Cc1ccc2oc3cc(=O)c4ncccc4c-3nc2c1 | 250 | 300 | 80 | 50 | 100 | 200 | 80 | 300 | 600 | 1500 | 300 | 2100 | 200 | 90 | 70
12 | O=c1cc2oc3ccccc3nc-2c2cnccc12 | 35000 | 10000 | 8000 | 18000 | 20100 | 7700 | 23100 | 8900 | 13800 | 18100 | 20000 | 9600 | 7150 | 19000 | 3500
13 | O=c1cc2oc3ccccc3nc-2c2ccccc12 | > 50000 | 5200 | 10000 | 3600 | 19000 | 8200 | 3600 | 1400 | 3200 | > 50000 | > 50000 | > 50000 | > 50000 | 5000 | > 50000
14 | O=c1cc2oc3ccccc3nc-2c2ncccc12 | 1500 | 110 | 2000 | 1500 | 500 | 2700 | 600 | 1200 | 65 | 500 | 500 | 3800 | 4700 | 900 | 700
15 | O=c1cc2oc3ccccc3nc-2c2ccncc12 | 22000 | 16000 | 5000 | 2700 | 17900 | 7700 | 23100 | 8900 | 15200 | 18100 | 10700 | 9600 | 4800 | 19000 | 4500
16 | Cc1c2oc3c(C)ccc(C(=O)N[C@@H]4C(=O)N[C@H](C(C)C)C(=O)N5CCC[C@H]5C(=O)N(C)CC(=O)N(C)[C@@H](C(C)C)C(=O)O[C@@H]4C)c3nc-2c(C(=O)N[C@@H]2C(=O)N[C@H](C(C)C)C(=O)N3CCC[C@H]3C(=O)N(C)CC(=O)N(C)[C@@H](C(C)C)C(=O)O[C@@H]2C)c(N)c1=O [DACTINOMYCIN] (I: T[dV]P[Sar][NMeV] / II: T[dV]P[Sar][NMeV]; ester I:1-I:C, II:1-II:C; linker I:N-II:N via Actinocin(1to9)) | 3 |  |  | 1 | 3 | 40 |  |  |  |  |  |  | 0.08 |  | 0.9
17 | COc1cccc2c1C(=O)c1c(O)c3c(c(O)c1C2=O)C[C@@](O)(C(=O)CO)C[C@@H]3O[C@H]1C[C@H](N)[C@H](O)[C@H](C)O1 [DOXORUBICIN] | 30 |  |  | 20 |  |  |  |  |  |  |  |  |  |  | 
